This passage reports IC50 results from BindingDB's records for doi:10.1021/jm0701019 (Abbott Laboratories, 2007).

As usually defined, the IC50 is the concentration that gives 50% inhibition. Low readings indicate inhibition by little substance, high ones a need for much substance.

The target of this assay is T1, RAC-alpha serine/threonine-protein kinase [139-480,S378A,S381A,T450D,S473D] (Homo sapiens, UniProt P31749, S378A/S381A/S473D/T450D).
T1 construct: 139-480
Briefly: Akt Kinase Assay. The method, then: The kinase assay uses His-Akt1 and a biotinylated peptide as substrate. The biotinylated peptides were immobilized on streptavidin-coated FLASH plates. After reaction, the 33P-phosphopeptide captured on the FLASH plates was measured with a TopCount Packard Instruments […] (Packard Instruments, Boston, MA).

T1 sequence (P31749 139-480 S378A/S381A/T450D/S473D): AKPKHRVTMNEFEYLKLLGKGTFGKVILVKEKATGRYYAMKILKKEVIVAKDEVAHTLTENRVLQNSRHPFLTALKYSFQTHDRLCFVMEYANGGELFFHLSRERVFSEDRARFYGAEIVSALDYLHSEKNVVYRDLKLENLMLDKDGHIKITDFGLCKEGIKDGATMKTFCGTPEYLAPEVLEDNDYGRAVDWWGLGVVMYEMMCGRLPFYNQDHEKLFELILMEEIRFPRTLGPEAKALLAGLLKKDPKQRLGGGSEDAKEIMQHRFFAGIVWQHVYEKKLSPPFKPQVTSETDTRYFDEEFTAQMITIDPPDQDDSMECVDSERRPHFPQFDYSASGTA

The compound `COc1ccc(F)cc1C[C@H](N)COc1cncc(-c2ccc3[nH]nc(C)c3c2)c1` [(2S)-1-(5-fluoro-2-methoxyphenyl)-3-{[5-(3-methyl-1H-indazol-5-yl)pyridin-3-yl]oxy}propan-2-amine] registered an IC50 of 7.7 nM.

`Cc1cc(C[C@H](N)COc2cncc(-c3ccc4[nH]nc(C)c4c3)c2)ccc1Br` [5-{5-[(2S)-2-amino-3-(4-bromo-3-methylphenyl)propoxy]pyridin-3-yl}-3-methyl-1H-indazole] gave an IC50 of 2.5 nM.

Compound `Cc1n[nH]c2ccc(-c3cncc(OC[C@@H](N)Cc4ccc(OC(F)(F)F)cc4)c3)cc12` [(2S)-1-{[5-(3-methyl-1H-indazol-5-yl)pyridin-3-yl]oxy}-3-[4-(trifluoromethoxy)phenyl]propan-2-amine] registered an IC50 of 20.3 nM.

For the compound `Cc1n[nH]c2ccc(-c3cncc(OC[C@@H](N)Cc4c(F)cc(F)cc4F)c3)cc12` [(2S)-1-(2,4,6-trifluorophenyl)-3-{[5-(3-methyl-1H-indazol-5-yl)pyridin-3-yl]oxy}propan-2-amine], where the note is “pH 7.5, 22 °C”, the 50% inhibitory concentration (IC50) stood at 31 nM.

On to `Cc1n[nH]c2ccc(-c3cncc(OC[C@@H](N)Cc4cccc(OCCN)c4)c3)cc12` [5-{5-[(2S)-2-amino-3-[3-(2-aminoethoxy)phenyl]propoxy]pyridin-3-yl}-3-methyl-1H-indazole], for which the IC50 turned out to be 47 nM.

For `Cc1n[nH]c2ccc(-c3cncc(OC[C@@H](N)Cc4ccc(F)c(Cl)c4)c3)cc12` [(2S)-1-(3-chloro-4-fluorophenyl)-3-{[5-(3-methyl-1H-indazol-5-yl)pyridin-3-yl]oxy}propan-2-amine], the IC50 was found to be 3.1 nM.

As to `Cc1n[nH]c2ccc(-c3cncc(OC[C@@H](N)Cc4ccc5c(c4)OC(F)(F)C(F)(F)O5)c3)cc12` [5-{5-[(2S)-2-amino-3-(2,2,3,3-tetrafluoro-2,3-dihydro-1,4-benzodioxin-6-yl)propoxy]pyridin-3-yl}-3-methyl-1H-indazole], the IC50 is 13 nM.

As to `Cc1n[nH]c2ccc(-c3cncc(OC[C@@H](N)Cc4ccc(C(F)(F)F)cc4)c3)cc12` [(2S)-1-{[5-(3-methyl-1H-indazol-5-yl)pyridin-3-yl]oxy}-3-[4-(trifluoromethyl)phenyl]propan-2-amine], half-maximal inhibition (IC50) required 18 nM.

`Cc1n[nH]c2ccc(-c3cncc(OC[C@@H](N)Cc4ccc(Br)cc4F)c3)cc12` [5-{5-[(2S)-2-amino-3-(4-bromo-2-fluorophenyl)propoxy]pyridin-3-yl}-3-methyl-1H-indazole] showed an IC50 of 10 nM.

In the case of `Cc1cc(C[C@H](N)COc2cncc(-c3ccc4[nH]nc(C)c4c3)c2)ccc1F` [(2S)-1-(3-methyl-4-fluorophenyl)-3-{[5-(3-methyl-1H-indazol-5-yl)pyridin-3-yl]oxy}propan-2-amine], half-maximal inhibition (IC50) was put at 11 nM.

Take `Cc1n[nH]c2ccc(-c3cncc(OC[C@@H](N)Cc4ccc(Cl)c(F)c4)c3)cc12` [5-{5-[(2S)-2-amino-3-(4-chloro-3-fluorophenyl)propoxy]pyridin-3-yl}-3-methyl-1H-indazole]: the IC50 was 3.6 nM.

In turn, `Cc1n[nH]c2ccc(-c3cncc(OC[C@@H](N)Cc4c(F)cccc4F)c3)cc12` [5-{5-[(2S)-2-amino-3-(2,6-difluorophenyl)propoxy]pyridin-3-yl}-3-methyl-1H-indazole] showed an IC50 (pH 7.5, 22 °C) of 65.5 nM.

`Cc1n[nH]c2ccc(-c3cncc(OC[C@@H](N)Cc4cc(C(F)(F)F)ccc4F)c3)cc12` [5-{5-[(2S)-2-amino-3-[2-fluoro-5-(trifluoromethyl)phenyl]propoxy]pyridin-3-yl}-3-methyl-1H-indazole] returned an IC50 of 1.2 nM.

With `Cc1n[nH]c2ccc(-c3cncc(OC[C@@H](N)Cc4ccc(Br)c(F)c4)c3)cc12` [5-{5-[(2S)-2-amino-3-(4-bromo-3-fluorophenyl)propoxy]pyridin-3-yl}-3-methyl-1H-indazole], the IC50 turned out to be 1.3 nM.

`Cc1n[nH]c2ccc(-c3cncc(OC[C@@H](N)Cc4ccc(F)c(F)c4F)c3)cc12` [5-{5-[(2S)-2-amino-3-(2,3,4-trifluorophenyl)propoxy]pyridin-3-yl}-3-methyl-1H-indazole] displayed an IC50 (pH 7.5, 22 °C) of 12 nM.

For `Cc1n[nH]c2ccc(-c3cncc(OC[C@@H](N)Cc4cc(F)cc(C(F)(F)F)c4)c3)cc12` [(2S)-1-[5-fluoro-3-(trifluoromethyl)phenyl]-3-{[5-(3-methyl-1H-indazol-5-yl)pyridin-3-yl]oxy}propan-2-amine], the IC50 stood at 13.3 nM.

In the case of `Cc1n[nH]c2ccc(-c3cncc(OC[C@@H](N)Cc4cccc(Br)c4)c3)cc12` [(2S)-1-(3-bromophenyl)-3-{[5-(3-methyl-1H-indazol-5-yl)pyridin-3-yl]oxy}propan-2-amine], half-maximal inhibition (IC50) was put at 2.1 nM.

Compound `Cc1n[nH]c2ccc(-c3cncc(OC[C@@H](N)Cc4cccc(OCCN5CCOCC5)c4)c3)cc12` [4-(2-{3-[(2S)-2-amino-3-{[5-(3-methyl-1H-indazol-5-yl)pyridin-3-yl]oxy}propyl]phenoxy}ethyl)morpholine] returned an IC50 of 751 nM.

With `Cc1n[nH]c2ccc(-c3cncc(OC[C@@H](N)Cc4cc(Cl)cc(Cl)c4)c3)cc12` [(2S)-1-(3,5-dichlorophenyl)-3-{[5-(3-methyl-1H-indazol-5-yl)pyridin-3-yl]oxy}propan-2-amine], the IC50 worked out at 20.7 nM.

In turn, `Cc1n[nH]c2ccc(-c3cncc(OC[C@@H](N)Cc4cccc(Cl)c4)c3)cc12` [(2S)-1-(3-chlorophenyl)-3-{[5-(3-methyl-1H-indazol-5-yl)pyridin-3-yl]oxy}propan-2-amine] registered an IC50 of 5.9 nM.

`N[C@H](COc1cncc(-c2cc3cn[nH]c3cn2)c1)Cc1cccc(C(F)(F)F)c1` [(2S)-1-{[5-(1H-pyrazolo[3,4-c]pyridin-5-yl)pyridin-3-yl]oxy}-3-[3-(trifluoromethyl)phenyl]propan-2-amine] gave an IC50 of 7.2 nM.

The compound `Cc1n[nH]c2ccc(-c3cncc(OC[C@@H](N)Cc4ccccc4Br)c3)cc12` [(2S)-1-(2-bromophenyl)-3-{[5-(3-methyl-1H-indazol-5-yl)pyridin-3-yl]oxy}propan-2-amine] showed an IC50 of 23 nM.

In the case of `N[C@H](COc1cncc(-c2ccc3c(c2)/C(=C\c2ccco2)C(=O)N3)c1)Cc1ccccc1` [(3E)-5-{5-[(2S)-2-amino-3-phenylpropoxy]pyridin-3-yl}-3-(furan-2-ylmethylidene)-2,3-dihydro-1H-indol-2-one], half-maximal inhibition (pH 7.5, 22 °C) (IC50) required 1.4 nM.

In turn, `Cc1n[nH]c2ccc(-c3cncc(OC[C@@H](N)Cc4ccc(C(F)(F)F)cc4F)c3)cc12` [5-{5-[(2S)-2-amino-3-[2-fluoro-4-(trifluoromethyl)phenyl]propoxy]pyridin-3-yl}-3-methyl-1H-indazole] registered an IC50 of 12.1 nM.

Compound `N[C@H](COc1cncc(-c2ccc3c(c2)CC(=O)N3)c1)Cc1ccccc1` [5-(5-{[(2S)-2-amino-3-phenylpropyl]oxy}pyridin-3-yl)-1,3-dihydro-2H-indol-2-one] registered an IC50 (pH 7.5, 22 °C) of 2650 nM.

Compound `Cc1n[nH]c2ccc(-c3cncc(OC[C@@H](N)Cc4cccc(I)c4)c3)cc12` [5-{5-[(2S)-2-amino-3-(3-iodophenyl)propoxy]pyridin-3-yl}-3-methyl-1H-indazole] yielded an IC50 of 0.9 nM.

Regarding `Cc1n[nH]c2ccc(-c3cncc(OC[C@@H](N)Cc4cccc(-c5ccccc5)c4)c3)cc12` [5-{5-[(2S)-2-amino-3-(3-phenylphenyl)propoxy]pyridin-3-yl}-3-methyl-1H-indazole], half-maximal inhibition (IC50) was put at 126 nM.

Turning to `Cc1n[nH]c2cnc(-c3cncc(OC[C@@H](N)Cc4cccc(C(F)(F)F)c4)c3)cc12` [3-[(2S)-2-amino-3-[3-(trifluoromethyl)phenyl]propoxy]-5-{3-methyl-1H-pyrazolo[3,4-c]pyridin-5-yl}pyridine], the IC50 is 0.6 nM.

The compound `Cc1n[nH]c2ccc(-c3cncc(OC[C@@H](N)Cc4ccc(Cl)c(Cl)c4)c3)cc12` [(2S)-1-(3,4-dichlorophenyl)-3-{[5-(3-methyl-1H-indazol-5-yl)pyridin-3-yl]oxy}propan-2-amine] returned an IC50 of 1.8 nM.

In turn, `N[C@H](COc1cncc(-c2cc3c(Cl)n[nH]c3cn2)c1)Cc1cccc(C(F)(F)F)c1` [(2S)-1-{[5-(3-chloro-1H-pyrazolo[3,4-c]pyridin-5-yl)pyridin-3-yl]oxy}-3-[3-(trifluoromethyl)phenyl]propan-2-amine] displayed an IC50 of 2.9 nM.

Consider `Cc1n[nH]c2ccc(-c3cncc(OC[C@@H](N)Cc4cccc(F)c4)c3)cc12` [5-{5-[(2S)-2-amino-3-(3-fluorophenyl)propoxy]pyridin-3-yl}-3-methyl-1H-indazole], for which the IC50 (pH 7.5, 22 °C) came out at 8.4 nM.

For the compound `Cc1ccc(C[C@H](N)COc2cncc(-c3ccc4[nH]nc(C)c4c3)c2)cc1F` [5-{5-[(2S)-2-amino-3-(3-fluoro-4-methylphenyl)propoxy]pyridin-3-yl}-3-methyl-1H-indazole], the IC50 stood at 2.4 nM.

As for `Cc1n[nH]c2ccc(-c3cncc(OC[C@@H](N)Cc4ccc(Cl)cc4)c3)cc12` [(2S)-1-(4-chlorophenyl)-3-{[5-(3-methyl-1H-indazol-5-yl)pyridin-3-yl]oxy}propan-2-amine], the IC50 is 11 nM.

Regarding `Cc1n[nH]c2ccc(-c3cncc(OC[C@@H](N)Cc4cccc5c4OC(F)(F)O5)c3)cc12` [5-{5-[(2S)-2-amino-3-(2,2-difluoro-2H-1,3-benzodioxol-4-yl)propoxy]pyridin-3-yl}-3-methyl-1H-indazole], the IC50 amounted to 14 nM.

Compound `Cc1n[nH]c2ccc(-c3cncc(OC[C@@H](N)Cc4cc(C(F)(F)F)cc(C(F)(F)F)c4)c3)cc12` [5-{5-[(2S)-2-amino-3-[3,5-bis(trifluoromethyl)phenyl]propoxy]pyridin-3-yl}-3-methyl-1H-indazole] gave an IC50 of 57 nM.

For `Cc1n[nH]c2ccc(-c3cncc(OC[C@@H](N)Cc4ccc(F)cc4F)c3)cc12` [(2S)-1-(2,4-difluorophenyl)-3-{[5-(3-methyl-1H-indazol-5-yl)pyridin-3-yl]oxy}propan-2-amine], inhibition (pH 7.5, 22 °C) was half-maximal at 21 nM (IC50).

`Cc1cc(F)ccc1C[C@H](N)COc1cncc(-c2ccc3[nH]nc(C)c3c2)c1` [5-{5-[(2S)-2-amino-3-(4-fluoro-2-methylphenyl)propoxy]pyridin-3-yl}-3-methyl-1H-indazole] registered an IC50 of 6 nM.
